# Source: the OPERA property sets (Mansouri et al. 2018)
# Settings: not given
SMILES,log10 Koc (L/kg),log10 vapour pressure (mmHg),melting point,ready biodegradability,boiling point,log10 Henry constant (atm·m³/mol),log10 Koa,log10 biodegradation half-life (days)
Cc1ccc(C(=O)O)cc1,1.77,-4.29,180 °C,readily biodegradable,–,–,–,–
CC1(C)[C@H]2CC[C@]1(C)[C@H](O)C2,–,–,–,–,210 °C,–,–,–
Nc1ccc(OCCCCCN2C(=O)c3ccccc3C2=O)cc1,–,–,114 °C,–,–,–,–,–
Cc1cccc(C)c1O,–,-0.767,45.7 °C,not readily biodegradable,201 °C,-5.18,–,–
ClC(Cl)(Br)CBr,–,-0.0458,-26 °C,–,195 °C,–,–,–
CCCOc1ccc(O)cc1,–,–,56.5 °C,–,–,–,–,–
CCC(=O)C1(c2cccc(O)c2)CCN(C)CC1,–,–,156 °C,–,–,–,–,–
CCCCCC(C)(C)CC,–,–,–,–,161 °C,–,–,–
ICc1ccccc1,–,-0.903,24.5 °C,–,–,–,–,–
Clc1cc(Cl)c2c(c1)oc1cc(Cl)cc(Cl)c12,–,-7.73,207 °C,–,–,–,–,–
O=C(O)Cc1c(-c2ccccc2)c(-c2ccccc2)nn1-c1ccccc1,–,–,200 °C,–,–,–,–,–
CCCCC(=O)OC(=O)CCCC,–,–,-56.1 °C,–,227 °C,–,–,–
CC(O)CO (stereo not given),0.36,-0.889,-60 °C,readily biodegradable,188 °C,–,–,–
CC(c1ccccc1)C1CCCCC1 (stereo not given),–,–,–,–,265 °C,–,–,–
Cc1ccc2[nH]c3ccccc3c2c1,–,–,208 °C,–,365 °C,–,–,–
CCSC(=O)N1CCCCCC1,1.92,-2.25,–,–,–,-5.39,–,–
Cl.NCC(F)(F)F,–,–,195 °C,–,–,–,–,–
N#CCC(=O)NN,–,–,114 °C,–,–,–,–,–
C=CCC1(C2C=CCCC2)C(=O)NC(=S)NC1=O (stereo not given),–,–,149 °C,–,–,–,–,–
O=C(O)c1c(F)cc(F)cc1F,–,–,143 °C,–,–,–,–,–
O=C(c1ccc(O)cc1)c1ccc(O)c(O)c1O,–,–,–,not readily biodegradable,–,–,–,–
CCCCCCCCCCCCOP(=O)(O)O,–,–,–,readily biodegradable,–,–,–,–
Clc1ccc2ccccc2n1,–,–,38 °C,–,266 °C,–,–,–
CC(=O)N(C)C,–,–,–,readily biodegradable,–,–,–,–
O=c1ccn([C@@H]2C[C@H](F)[C@@H](CO)O2)c(=O)[nH]1,–,–,186 °C,–,–,–,–,–
CCCCCCOC(C)=O,–,0.122,-80.9 °C,–,172 °C,-3.28,4.58,–

SMILES,log10 Koc (L/kg),log10 vapour pressure (mmHg),melting point,ready biodegradability,boiling point,log10 Henry constant (atm·m³/mol),log10 Koa,log10 biodegradation half-life (days)
NC(=O)CF,–,–,108 °C,–,–,–,–,–
Cc1c(Cl)cccc1Cl,–,–,25.8 °C,not readily biodegradable,198 °C,–,–,–
O=C(O)c1ccc(C(=O)O)s1,–,–,359 °C,–,–,–,–,–
Nc1cc(C(=O)O)ccc1Cl,–,–,214 °C,–,–,–,–,–
Oc1cc(O)cc(Cl)c1,–,–,118 °C,–,–,–,–,–
CCCCCCC(=O)CC,–,–,-8 °C,–,190 °C,–,–,–
N#CC1(N=NC2(C#N)CCCCC2)CCCCC1,–,–,116 °C,–,–,–,–,–
O=CC=Cc1ccc([N+](=O)[O-])o1,–,–,118 °C,–,–,–,–,–
CN(N)c1ccccc1,–,–,–,–,228 °C,–,–,–
CC(C)CON=O,–,–,–,–,67 °C,–,–,–
Clc1cc(-c2ccccc2)c(Cl)c(Cl)c1Cl,–,-4.43,–,–,–,–,8.74,–
Cc1ccc(C)c2occc12,–,–,–,–,216 °C,–,–,–
CCOC(=O)C(C)C(=O)OCC,–,–,–,–,201 °C,–,–,–
CC(C)(C)c1cc(O)ccc1O,–,–,128 °C,–,273 °C,–,–,–
C=C1C(O)CC2(C(C)C)CC12 (stereo not given),–,–,–,–,208 °C,–,–,–
CCCCCCCCCCCCCCCCCCCCCCCCCCCCCCCCCC,–,–,72.6 °C,readily biodegradable,483 °C,–,–,2.58
CCOc1nc(NC)nc(NC(=O)NS(=O)(=O)c2ccccc2C(=O)OC)n1,1.93,–,194 °C,–,–,–,–,–
C[Si]1(C)O[Si](C)(C)O[Si](C)(C)O1,–,0.548,64.5 °C,–,134 °C,–,–,–
COc1ccc2c(c1OC)CN(C)CCc1cc3c(cc1C(=O)C2)OCO3,–,–,160 °C,–,–,–,–,–
CCC(C)Oc1ccccc1 (stereo not given),–,–,–,–,194 °C,–,–,–
CC1(C)CC[C@]2(C(=O)O)[C@H](O)C[C@]3(C)C(=CC[C@@H]4[C@@]5(C)CC[C@H](O)[C@@](C)(C=O)[C@@H]5CC[C@]43C)[C@@H]2C1,–,–,294 °C,–,–,–,–,–
Cc1ccc(-c2nc3ccc(C)cn3c2CC(=O)N(C)C)cc1,–,–,196 °C,–,–,–,–,–
ON=C(C1CC1)C1CC1,–,–,76.5 °C,–,–,–,–,–
CC(C)c1ccc2ccccc2c1,–,-2.29,14.5 °C,–,268 °C,–,–,–
c1ccc2c(c1)OCCOCCOc1ccccc1OCCOCCO2,–,–,163 °C,–,–,–,–,–
CC1CN1 (stereo not given),–,2.15,-65 °C,–,67 °C,–,–,–

SMILES,log10 Koc (L/kg),log10 vapour pressure (mmHg),melting point,ready biodegradability,boiling point,log10 Henry constant (atm·m³/mol),log10 Koa,log10 biodegradation half-life (days)
c1ccc2nc3ccccc3nc2c1,3.37,–,176 °C,–,–,–,–,–
COC1=C[C@@H]2[C@@H]3Cc4ccc(OC)c(O)c4[C@]2(CCN3C)CC1=O,–,–,162 °C,–,–,–,–,–
CCOc1cc(OCC)cc(OCC)c1,–,–,43.5 °C,–,–,–,–,–
CCOCCCO,–,–,160 °C,–,–,–,–,–
CC(=O)c1c(C)cc(C)cc1C,–,–,–,–,241 °C,–,–,–
CC(C)c1cc(C(C)C)c(C(C)C)cc1C(C)C,–,-2.7,118 °C,–,259 °C,–,–,–
CCCC=CC=O,–,–,–,–,–,-4.31,–,–
O=S(=O)(c1ccc(Cl)cc1)c1cc(Cl)c(Cl)cc1Cl,–,-9.62,147 °C,not readily biodegradable,–,–,–,–
Nc1c(F)cc(F)cc1F,–,–,35 °C,–,–,–,–,–
CC(=O)OC(c1ccccc1)C(Cl)(Cl)Cl (stereo not given),–,–,87.5 °C,–,–,–,–,–
CCCCCCCCCCCCCCCCCCCCO,–,-7.34,66.1 °C,–,372 °C,–,12.1,–
CC1CCSCC1,–,–,-28 °C,–,159 °C,–,–,–
CCCCCCCCC(Br)CBr (stereo not given),–,-2.43,28 °C,–,–,–,–,–
c1ccc(C2CCCCC2)cc1,–,-1.4,7.3 °C,–,240 °C,–,–,–
CC(C)(C)CC(=O)OCC(=O)[C@@]1(O)CC[C@H]2[C@@H]3CCC4=CC(=O)CC[C@]4(C)[C@H]3[C@@H](O)C[C@@]21C,–,–,168 °C,–,–,–,–,–
O=C1C=C(Nc2ccccc2)C(=O)c2ccccc21,–,–,193 °C,–,–,–,–,–
COc1ccccc1I,–,–,–,–,241 °C,–,–,–
O=C(O)c1ccc([N+](=O)[O-])cc1,–,–,242 °C,readily biodegradable,–,–,–,–
Brc1cccc(Br)c1,–,-0.571,-7 °C,–,218 °C,–,–,–
O=C(OCC(F)(F)F)C(F)(F)F,–,–,–,–,55 °C,–,–,–
CC(C)N1C(=O)c2ccccc2NS1(=O)=O,1.52,–,138 °C,–,–,–,–,–
NS(=O)(=O)c1cc2c(cc1Cl)NCNS2(=O)=O,–,–,274 °C,–,–,–,–,–
CCOP(=S)(OCC)Oc1ccc2c(C)c(Cl)c(=O)oc2c1,–,-7.01,93 °C,–,–,–,–,–
COc1ccccc1OP(=O)(Oc1ccccc1OC)Oc1ccccc1OC,–,–,91 °C,–,–,–,–,–
CCCCCCCCOC(C)=O,–,–,-38.5 °C,–,210 °C,–,–,–
N#Cc1ccc2c(c1)N(CCCN1CCC(O)CC1)c1ccccc1S2,–,–,116 °C,–,–,–,–,–

SMILES,log10 Koc (L/kg),log10 vapour pressure (mmHg),melting point,ready biodegradability,boiling point,log10 Henry constant (atm·m³/mol),log10 Koa,log10 biodegradation half-life (days)
CC(C)(C)OC(=O)CCl,–,–,–,–,150 °C,–,–,–
CC=CCCc1ccccn1,–,–,–,–,216 °C,–,–,–
CC(=O)c1ccc(OCC(=O)O)cc1,–,–,176 °C,–,–,–,–,–
C#CCCCCCCCCCCCCCCCCCC,–,–,36 °C,–,340 °C,–,–,–
Nc1nc(N)c2[nH]cnc2n1,–,–,302 °C,–,–,–,–,–
C=CCSSCC=C,–,–,–,–,188 °C,–,–,–
COc1ccc(NC(N)=O)cc1Cl,2,–,–,–,–,–,–,–
FC(F)(F)COCC(F)(F)F,–,2.19,–,–,63.9 °C,–,–,–
CC[C@@H]1CCC[C@H]1C,–,1.3,-106 °C,–,125 °C,–,–,–
CCOc1ccccc1[N+](=O)[O-],–,–,2.2 °C,–,267 °C,–,–,–
FC(F)(Br)C(F)(F)C(F)(F)C(F)(F)C(F)(F)C(F)(F)C(F)(F)Br,–,–,–,–,159 °C,–,–,–
CCCCCCCCC(C(=O)O)C(=O)O,–,–,116 °C,–,–,–,–,–
c1ccc(Nc2ccccc2)cc1,2.78,-3.17,52.9 °C,not readily biodegradable,302 °C,–,7.64,–
OC[C@H]1O[C@H](O[C@H]2O[C@H](CO)[C@@H](O)[C@H](O)[C@H]2O)[C@H](O)[C@@H](O)[C@@H]1O,–,–,203 °C,–,–,–,–,–
Nc1ccc(S(=O)c2ccc(N)cc2)cc1,–,–,175 °C,–,–,–,–,–
Brc1ccc2[nH]ccc2c1,–,–,91 °C,–,–,–,–,–
CCNC(C)C,–,–,–,–,69.6 °C,–,–,–
Nc1c(Cl)cc(Cl)cc1Cl,–,–,78.5 °C,not readily biodegradable,262 °C,–,–,–
c1ccc(OB(Oc2ccccc2)Oc2ccccc2)cc1,–,–,99.5 °C,–,–,–,–,–
CCCCCCCCON=O,–,–,–,–,174 °C,–,–,–
Clc1cc2c(cc1Cl)Oc1ccccc1O2,–,-5.53,163 °C,–,–,–,8.5,–
CC1(C)[C@@H]2CC[C@@]1(C)[C@H](O)C2,–,–,209 °C,–,–,–,–,–
CC(C)C1NC(=O)NC1=O (stereo not given),–,–,–,not readily biodegradable,–,–,–,–
COc1ccc(C=O)c(C(=O)O)c1OC,–,–,150 °C,–,–,–,–,–
CC(CCc1ccccc1)NC(C)C(O)c1ccc(O)cc1 (stereo not given),–,–,112 °C,–,–,–,–,–
CCCF,–,3.3,-159 °C,–,2.5 °C,–,–,–

SMILES,log10 Koc (L/kg),log10 vapour pressure (mmHg),melting point,ready biodegradability,boiling point,log10 Henry constant (atm·m³/mol),log10 Koa,log10 biodegradation half-life (days)
C#CC(C)(C)NC(=O)c1ccc(OC)cc1,1.83,–,–,–,–,–,–,–
C=CC(O)CCl (stereo not given),–,–,–,–,146 °C,–,–,–
CC[N+](C)(CC)CCOC(=O)C(O)(c1cccs1)C1CCCC1.[Br-] (stereo not given),–,–,125 °C,–,–,–,–,–
C=CCCCCCCCCC(=O)O,–,-3.03,24.5 °C,–,275 °C,–,–,–
COc1cnc(NS(=O)(=O)c2ccc(N)cc2)nc1,–,–,215 °C,–,–,–,–,–
CCCCCCCCC(C)=O,–,-0.571,14 °C,readily biodegradable,210 °C,–,–,–
O=C(O)/C=C/CCl,–,–,83 °C,–,–,–,–,–
CC(=O)Nc1cccc(Br)c1,2.01,–,–,–,–,–,–,–
CC(CC(C(N)=O)(c1ccccc1)c1ccccc1)N(C)C (stereo not given),–,–,137 °C,–,–,–,–,–
CCCCC(C(=O)OCC)C(=O)OCC,–,–,–,–,238 °C,–,–,–
CCC(C)(C)OC(N)=O,–,–,86 °C,–,–,–,–,–
Cc1ccc(S(=O)O)cc1,–,–,86.5 °C,–,–,–,–,–
O=C(O)c1cccc([N+](=O)[O-])c1Cl,–,–,184 °C,–,–,–,–,–
CCc1ccccc1-n1c(C)nc2ccccc2c1=O,–,–,81 °C,–,–,–,–,–
O=C1c2ccccc2C(=O)c2cc(O)ccc21,–,-10.2,306 °C,–,–,–,–,–
CC[C@H]1OC(=O)[C@H](C)[C@@H](O[C@@H]2O[C@H](C)C[C@H](N(C)C)[C@H]2O)[C@@H](C)C[C@@H](C)C(=O)C=C[C@]1(C)O,–,–,196 °C,–,–,–,–,–
O=C(O)Cc1ccccc1CC(=O)O,–,–,151 °C,–,–,–,–,–
C=C(C)C(=O)OCC1CO1 (stereo not given),–,–,–,readily biodegradable,–,–,–,–
CC(N)CC(=O)O (stereo not given),–,–,193 °C,–,–,–,–,–
CCCS,–,2.19,-113 °C,–,67.8 °C,-2.39,–,–
O=C1OC(=O)[C@H]2[C@@H]1[C@H]1C=C[C@@H]2C1,–,–,164 °C,–,–,–,–,–
COC(C)OC,–,2.23,-113 °C,–,64.5 °C,–,–,–

# Same assay, conditions: fish
SMILES,log10 BCF,log10 biotransformation half-life (days)
CCSC(=O)N1CCCCCC1,1.41,-1.08
CC(C)c1ccc2ccccc2c1,–,1
Brc1cccc(Br)c1,2.82,1.16
c1ccc(Nc2ccccc2)cc1,2.18,0.35
Nc1c(Cl)cc(Cl)cc1Cl,2,0.67
Clc1cc2c(cc1Cl)Oc1ccccc1O2,–,0.33
